Test results published in the NIST ThermoML archive (doi:10.1021/acs.jced.8b01135).

Assay: xn = mol fraction of the nth substance listed
Conditions: 102 kPa, Liquid; for speed of sound: Frequency=3 MHz, Single path-length method; for mass density: Vibrating tube method; for viscosity: Concentric cylinders viscometry

CCCCCC1CCCCC1 [pentylcyclohexane] + CCCCCCCCCCCC
Conditions | mass density [kg/m3] | speed of sound [m/s] | viscosity [mPa·s]
288.15 K, x1 = 0.1009 | 757.14 | 1321.1 | –
288.15 K, x1 = 0.2001 | 761.98 | 1324.9 | –
288.15 K, x1 = 0.3003 | 767.03 | 1329.1 | –
288.15 K, x1 = 0.4009 | 772.26 | 1333.4 | –
288.15 K, x1 = 0.5001 | 777.64 | 1338.1 | –
288.15 K, x1 = 0.6 | 783.17 | 1343 | –
288.15 K, x1 = 0.7003 | 789 | 1348.1 | –
288.15 K, x1 = 0.8136 | 795.88 | 1354.4 | –
288.15 K, x1 = 0.9082 | 801.77 | 1359.9 | –
288.15 K, x1 = 1 | 807.78 | 1365.8 | –
293.15 K, x1 = 0.1009 | 753.52 | 1301.6 | 1.5
293.15 K, x1 = 0.2001 | 758.36 | 1305.5 | 1.51
293.15 K, x1 = 0.3003 | 763.41 | 1309.6 | 1.52
293.15 K, x1 = 0.4009 | 768.64 | 1313.9 | 1.54
293.15 K, x1 = 0.5001 | 774.02 | 1318.6 | 1.55
293.15 K, x1 = 0.6 | 779.55 | 1323.4 | 1.57
293.15 K, x1 = 0.7003 | 785.37 | 1328.5 | 1.6
293.15 K, x1 = 0.8136 | 792.25 | 1334.7 | 1.62
293.15 K, x1 = 0.9082 | 798.13 | 1340.2 | 1.66
293.15 K, x1 = 1 | 804.13 | 1346 | 1.69
298.15 K, x1 = 0.1009 | 749.9 | 1282.5 | –
298.15 K, x1 = 0.2001 | 754.73 | 1286.2 | –
298.15 K, x1 = 0.3003 | 759.79 | 1290.3 | –
298.15 K, x1 = 0.4009 | 765.01 | 1294.6 | –
298.15 K, x1 = 0.5001 | 770.39 | 1299.2 | –
298.15 K, x1 = 0.6 | 775.92 | 1304 | –
298.15 K, x1 = 0.7003 | 781.74 | 1309.1 | –
298.15 K, x1 = 0.8136 | 788.61 | 1315.2 | –
298.15 K, x1 = 0.9082 | 794.48 | 1320.6 | –
298.15 K, x1 = 1 | 800.48 | 1326.4 | –
303.15 K, x1 = 0.1009 | 746.27 | 1263.2 | 1.28
303.15 K, x1 = 0.2001 | 751.1 | 1267.1 | 1.29
303.15 K, x1 = 0.3003 | 756.16 | 1271.2 | 1.3
303.15 K, x1 = 0.4009 | 761.38 | 1275.4 | 1.31
303.15 K, x1 = 0.5001 | 766.76 | 1280 | 1.32
303.15 K, x1 = 0.6 | 772.28 | 1284.8 | 1.34
303.15 K, x1 = 0.7003 | 778.1 | 1289.8 | 1.35
303.15 K, x1 = 0.8136 | 784.97 | 1295.8 | 1.38
303.15 K, x1 = 0.9082 | 790.84 | 1301.1 | 1.4
303.15 K, x1 = 1 | 796.82 | 1306.7 | 1.43
313.15 K, x1 = 0.1009 | 738.99 | 1225.5 | 1.08
313.15 K, x1 = 0.2001 | 743.83 | 1229.3 | 1.09
313.15 K, x1 = 0.3003 | 748.88 | 1233.4 | 1.1
313.15 K, x1 = 0.4009 | 754.1 | 1237.6 | 1.11
313.15 K, x1 = 0.5001 | 759.47 | 1242.1 | 1.12
313.15 K, x1 = 0.6 | 764.99 | 1246.8 | 1.14
313.15 K, x1 = 0.7003 | 770.8 | 1251.7 | 1.15
313.15 K, x1 = 0.8136 | 777.66 | 1257.6 | 1.17
313.15 K, x1 = 0.9082 | 783.52 | 1262.8 | 1.19
313.15 K, x1 = 1 | 789.49 | 1268.2 | 1.21
323.15 K, x1 = 0.1009 | 731.68 | 1188.3 | 0.941
323.15 K, x1 = 0.2001 | 736.51 | 1192.1 | 0.949
323.15 K, x1 = 0.3003 | 741.57 | 1196.2 | 0.957
323.15 K, x1 = 0.4009 | 746.79 | 1200.3 | 0.967
323.15 K, x1 = 0.5001 | 752.16 | 1204.8 | 0.976
323.15 K, x1 = 0.6 | 757.67 | 1209.6 | 0.988
323.15 K, x1 = 0.7003 | 763.48 | 1214.3 | 1
323.15 K, x1 = 0.8136 | 770.33 | 1220.1 | 1.02
323.15 K, x1 = 0.9082 | 776.17 | 1225.1 | 1.03
323.15 K, x1 = 1 | 782.14 | 1230.5 | 1.05
333.15 K, x1 = 0.1009 | 724.33 | 1151.9 | 0.819
333.15 K, x1 = 0.2001 | 729.17 | 1155.8 | 0.825
333.15 K, x1 = 0.3003 | 734.22 | 1159.8 | 0.833
333.15 K, x1 = 0.4009 | 739.44 | 1163.9 | 0.841
333.15 K, x1 = 0.5001 | 744.8 | 1168.3 | 0.851
333.15 K, x1 = 0.6 | 750.31 | 1172.9 | 0.861
333.15 K, x1 = 0.7003 | 756.11 | 1177.6 | 0.871
333.15 K, x1 = 0.8136 | 762.96 | 1183.4 | 0.887
333.15 K, x1 = 0.9082 | 768.8 | 1188.4 | 0.897
333.15 K, x1 = 1 | 774.75 | 1193.5 | 0.914
